The text below walks through data of patent US9951366B2, “Cell-free protein synthesis method and device using a eukaryotic cell lysate in the presence of a caspase inhibitor and the use of a caspase inhibitor for increasing the yield and/or the stability of the synthesized proteins in such a method” (Fraunhofer-Gesellschaft zur Foerderung der angewandten …, priority 2013, dated 2018).

The subject of assay [1] is eukaryotic translation system on the basis of a cell extract from Spodoptera frugiperda (Sf21) insect cells. Briefly: Influence of irreversible and reversible caspase inhibitors on SII-eYFP synthesis, relative fluorescence intensity. Type of assay: biochemical. The following applies: inhibitor 30 μM, 48 h, dialysis mode, compared with control dialysis mixture without inhibitor. The method, then: Using the example of the fluorescent protein SII-eYFP, the influence of different irreversible caspase inhibitors (Z-VAD-FMK, Ac-VAD-CMK, Ac-DEVD-CMK (SEQ ID NO:1), Q-VD-OPh) and of a reversible caspase inhibitor (Ac-[…]-CHO (SEQ ID NO:10)) on the synthesis was investigated in a eukaryotic dialysis translation system.
The translation of SII-eYFP was carried out using the DNA template pIX3.0-SII-eYFP over 48 h at 600 rpm and 27° C. in the batch and dialysis modes in the presence of different irreversible and reversible caspase inhibitors. All inhibitors were used in a concentration of 30 μM. Following the completion of translation, the different mixtures were examined in the phosphorimager system (Typhoon TRIO+ imager, GE Healthcare) for their fluorescence intensity. For this purpose, 5 μl of each translation mixture was resuspended in 25 μl PBS. Subsequently, 25 μl of this sample was pipetted into a cavity of an Ibidi slide and measured, the excitation of the samples taking place at 488 nm and the emission being measured at 526 nm.

Assay [2] deals with cell-free eukaryotic translation system on the basis of a cell extract from Spodoptera frugiperda (Sf21) insect cells. Briefly: Influence of DTT on expression of model proteins in batch and dialysis system (autoradiograph). It is filed as biochemical. The settings on record: with Z-VAD-FMK, 48 h. As to the method:
For this purpose, the influence of the reducing agent DTT on the synthesis performance of the batch and dialysis system with different model proteins was investigated.
The synthesis of the glycoprotein erythropoietin (N-terminally fused to a melittin signal sequence; Mel-EPO; 20.9 kDa, unglycosylated) and of ETB (49.3 kDa), luciferase (60.6 kDa), Mel-Hb-EGF-eYFP (51 kDa) and bacteriorhodopsin (26.9 kDa) was carried out in the batch (B) and dialysis system (D) with the addition of the caspase inhibitor (Z-VAD-FMK) without (−) and with (+) the addition of DTT in the translation buffer in the presence of ^14C-leucine for 48 h, 27° C. and 600 rpm.
Control=translation mixture without the addition of a DNA template.

With `CC(C)C(NC(=O)c1ccc2ccccc2n1)C(=O)NC(CC(=O)O)C(=O)COc1c(F)cccc1F` (stereo not drawn) [Q-VD-OPh, N-(2-quinolyl)-Val-Asp-(2,6-difluorophenoxy)-methylketone], the “increase of synthesis yield of fluorescing SII-eYFP” value in assay [1] was found to be 77%. Consider `O[C@H](CS)[C@H](O)CS` (racemic) [DTT, dithiothreitol], for which, in assay [2], the “effect of absence of DTT on expression of model proteins (luciferase, SII-eYFP, ETB, Mel-Hb-EGF-eYFP, bacteriorhodopsin)” value is on record as “no negative effect”. The “glycosylation of Mel-EPO” value in assay [2] (with/without DTT) is “complete glycosylation of the target protein could only be achieved in the presence of DTT”. As for “acetyl-Ala-Ala-Val-Ala-Leu-Leu-Pro-Ala-Val-Leu-Leu-Ala-Leu-Leu-Ala-Pro-Asp-Glu-Val-Asp-aldehyde (Ac-AAVALLPAVLLALLAPDEVD-aldehyde; SMILES CC(=O)N[C@@H](C)C(=O)N[C@@H](C)C(=O)N[C@H](C(=O)N[C@@H](C)C(=O)N[C@@H](CC(C)C)C(=O)N[C@@H](CC(C)C)C(=O)N1CCC[C@H]1C(=O)N[C@@H](C)C(=O)N[C@H](C(=O)N[C@@H](CC(C)C)C(=O)N[C@@H](CC(C)C)C(=O)N[C@@H](C)C(=O)N[C@@H](CC(C)C)C(=O)N[C@@H](CC(C)C)C(=O)N[C@@H](C)C(=O)N1CCC[C@H]1C(=O)N[C@@H](CC(=O)O)C(=O)N[C@@H](CCC(=O)O)C(=O)N[C@H](C(=O)N[C@H](C=O)CC(=O)O)C(C)C)C(C)C)C(C)C)”, the “increase of synthesis yield of fluorescing SII-eYFP” value in assay [1] is 53%. Still for that read-out and setting: the figure for `CC(=O)N[C@@H](CC(=O)O)C(=O)N[C@@H](CCC(=O)O)C(=O)N[C@H](C(=O)N[C@@H](CC(=O)O)C(=O)CCl)C(C)C` [Ac-DEVD-CMK, acetyl-Asp-Glu-Val-Asp-chloromethylketone] is 122%.
